Source: ChEMBL document CHEMBL4052690, “2-Chlorophenyl-substituted benzofuro[3,2-b]pyridines with enhanced topoisomerase inhibitory activity: The role of the chlorine substituent” (Bioorg Med Chem Lett, 2017)
Where a name gives a salt, the structure may show the parent alone.

Experiments:
Homo sapiens [1] = species on record: Homo sapiens; assay: Inhibition of human recombinant DNA topoisomerase 2 assessed as reduction in enzyme-mediated relaxation of supercoiled pBR322 plasmid DNA at 20 uM in presence of 0.1% BSA by ethidium bromide staining based gel electrophoresis and UV spectroscopy
T47D = assay: Antiproliferative activity against human T47D cells after 72 hrs by CCK8 assay; type: functional, cell-based
Homo sapiens [2] = species on record: Homo sapiens; assay: Inhibition of human recombinant DNA topoisomerase 2 assessed as reduction in enzyme-mediated relaxation of supercoiled pBR322 plasmid DNA at 100 uM in presence of 0.1% BSA by ethidium bromide staining based gel electrophoresis and UV spectroscopy relative to etoposide
HeLa = assay: Antiproliferative activity against human HeLa cells after 72 hrs by CCK8 assay; type: functional, cell-based
[3] = biological target: T1, DNA topoisomerase 1 (Homo sapiens) (UniProt P11387); assay: Inhibition of human recombinant DNA topoisomerase 1 assessed as reduction in enzyme-mediated relaxation of supercoiled pBR322 plasmid DNA at 100 uM in presence of 0.1% BSA by ethidium bromide staining based gel electrophoresis and UV spectroscopy
T1 sequence (whole entry): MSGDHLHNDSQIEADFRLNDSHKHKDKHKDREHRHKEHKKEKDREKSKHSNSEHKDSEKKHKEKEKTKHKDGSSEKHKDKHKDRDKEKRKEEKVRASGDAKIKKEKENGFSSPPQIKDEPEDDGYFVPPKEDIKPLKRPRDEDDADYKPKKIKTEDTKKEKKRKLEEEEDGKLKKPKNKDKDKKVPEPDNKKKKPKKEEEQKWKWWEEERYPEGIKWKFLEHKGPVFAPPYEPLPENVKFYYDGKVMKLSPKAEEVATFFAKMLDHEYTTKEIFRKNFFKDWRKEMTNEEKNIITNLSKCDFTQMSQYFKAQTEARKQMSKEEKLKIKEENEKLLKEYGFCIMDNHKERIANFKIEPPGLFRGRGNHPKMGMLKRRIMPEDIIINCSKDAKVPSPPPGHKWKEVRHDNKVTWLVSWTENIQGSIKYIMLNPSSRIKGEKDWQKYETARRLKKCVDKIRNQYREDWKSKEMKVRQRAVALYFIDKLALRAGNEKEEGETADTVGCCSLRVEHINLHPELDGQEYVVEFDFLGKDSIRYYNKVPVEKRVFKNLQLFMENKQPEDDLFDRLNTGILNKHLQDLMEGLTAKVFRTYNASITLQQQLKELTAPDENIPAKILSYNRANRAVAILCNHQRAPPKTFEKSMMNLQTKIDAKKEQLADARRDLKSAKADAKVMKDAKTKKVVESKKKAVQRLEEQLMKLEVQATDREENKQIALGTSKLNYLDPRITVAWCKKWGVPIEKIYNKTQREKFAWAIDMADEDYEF

Homo sapiens [4] = species on record: Homo sapiens; assay: Inhibition of human recombinant DNA topoisomerase 2 assessed as reduction in enzyme-mediated relaxation of supercoiled pBR322 plasmid DNA at 100 uM in presence of 0.1% BSA by ethidium bromide staining based gel electrophoresis and UV spectroscopy
HCT-15 = assay: Antiproliferative activity against human HCT15 cells after 72 hrs by CCK8 assay; type: functional, cell-based; settings: HCT-15, 72 h
Homo sapiens [5] = species on record: Homo sapiens; assay: Inhibition of human recombinant DNA topoisomerase 2 assessed as reduction in enzyme-mediated relaxation of supercoiled pBR322 plasmid DNA at 20 uM in presence of 0.1% BSA by ethidium bromide staining based gel electrophoresis and UV spectroscopy relative to etoposide
[6] = biological target: T1, DNA topoisomerase 1 (Homo sapiens); assay: Inhibition of human recombinant DNA topoisomerase 1 assessed as reduction in enzyme-mediated relaxation of supercoiled pBR322 plasmid DNA at 100 uM in presence of 0.1% BSA by ethidium bromide staining based gel electrophoresis and UV spectroscopy relative to camptothecin

Row | SMILES | inhibition (Homo sapiens [1]) | IC50 (T47D) | fold change (FC) (Homo sapiens [2]) | IC50 (HeLa) | inhibition [3] | inhibition (Homo sapiens [4]) | IC50 (HCT-15) | fold change (FC) (Homo sapiens [5]) | fold change (FC) [6]
1 | Clc1ccccc1-c1cc(-c2ccoc2)c2oc3ccccc3c2n1 | 14.6% | 19.4 µM | 1.59 | 13.3 µM | 54.6% | 83.2% | 20.6 µM | 0.46 | 0.63
2 | Clc1cccc(-c2cc(-c3ccco3)c3oc4ccccc4c3n2)c1 | 55.4% | 23.2 µM | 1.3 | 40.8 µM | 100% | 85.5% | > 50 µM | 1.51 | 1.15
3 | CC[C@@]1(O)C(=O)OCc2c1cc1n(c2=O)Cc2cc3ccccc3nc2-1 [CAMPTOTHECIN] |  | 2.31 µM |  | 2.62 µM |  |  |  |  | 
4 | Clc1ccc(-c2cc(-c3ccco3)c3oc4ccccc4c3n2)cc1 | 80.9% | 13.2 µM | 1.46 | 36.5 µM | 100% | 96.2% | > 50 µM | 2.2 | 1.15
5 | Clc1ccccc1-c1cc(-c2cccs2)c2oc3ccccc3c2n1 | 10.8% | > 50 µM | 0.97 | 21.7 µM | 93.4% | 64.1% | 16.1 µM | 0.29 | 1.08
6 | Clc1ccc(-c2cc(-c3ccoc3)c3oc4ccccc4c3n2)cc1 | 82.1% | 18.5 µM | 1.7 | 16.6 µM | 86.5% | 88.7% | 38.6 µM | 2.61 | 0.95
7 | Clc1cccc(-c2cc(-c3cccs3)c3oc4ccccc4c3n2)c1 | 17.3% | 17.2 µM | 1.29 | > 50 µM | 85.1% | 85.3% | 19.3 µM | 0.47 | 0.98
8 | Clc1ccc(-c2cc(-c3ccsc3)c3oc4ccccc4c3n2)cc1 | 10.1% | > 50 µM | 1.83 | > 50 µM | 79.9% | 95.7% | > 50 µM | 0.32 | 0.92
9 | Clc1cccc(-c2cc(-c3ccsc3)c3oc4ccccc4c3n2)c1 | 12.2% | 13.2 µM | 1.79 | > 50 µM | 70.2% | 93.8% | 13.5 µM | 0.39 | 0.81

Further lines, results first:

Row | inhibition (Homo sapiens [1]) | IC50 (T47D) | fold change (FC) (Homo sapiens [2]) | IC50 (HeLa) | inhibition [3] | inhibition (Homo sapiens [4]) | IC50 (HCT-15) | fold change (FC) (Homo sapiens [5]) | fold change (FC) [6] | SMILES
10 | 17.6% | > 50 µM | 1.19 | > 50 µM | 100% | 78.2% | > 50 µM | 0.48 | 1.15 | Clc1ccc(-c2cc(-c3ccccc3)c3oc4ccccc4c3n2)cc1
11 | 5.1% | > 50 µM | 0.9 | > 50 µM | 86.1% | 59.4% | 21.7 µM | 0.14 | 0.99 | Clc1ccccc1-c1cc(-c2ccco2)c2oc3ccccc3c2n1
12 | 35.5% | 7.47 µM | 1.86 | 18.2 µM | 100% | 97.3% | 5.47 µM | 1.13 | 1.15 | Clc1cccc(-c2cc(-c3ccc(Cl)o3)c3oc4ccccc4c3n2)c1
13 | 29.5% | > 50 µM | 1.64 | > 50 µM | 100% | 86% | > 50 µM | 0.94 | 1.15 | Clc1ccc(-c2cc(-c3ccccc3Cl)nc3c2oc2ccccc23)o1
14 | 50.4% | 18.1 µM | 1.65 | 41.1 µM | 84.3% | 86.1% | 17.6 µM | 1.6 | 0.97 | Clc1cccc(-c2cc(-c3ccoc3)c3oc4ccccc4c3n2)c1
15 | 73.7% | 11.4 µM | 1.91 | 16.4 µM | 98.9% | 100% | > 50 µM | 2.34 | 0.81 | Clc1ccc(-c2cc(-c3ccc(Cl)o3)c3oc4ccccc4c3n2)cc1
16 | 85.8% | 25.5 µM | 1.52 | > 50 µM | 100% | 100% | 10.6 µM | 2.33 | 1.15 | Clc1ccccc1-c1cc(-c2ccsc2)c2oc3ccccc3c2n1
17 | 6.9% | 19.5 µM | 0.88 | 21.7 µM | 33% | 58.2% | 19.4 µM | 0.19 | 0.38 | Clc1ccccc1-c1cc(-c2ccccc2)c2oc3ccccc3c2n1
18 | 15.1% | > 50 µM | 0.89 | > 50 µM | 100% | 58.5% | > 50 µM | 0.41 | 1.15 | Clc1ccc(-c2cc(-c3cccs3)c3oc4ccccc4c3n2)cc1
19 |  | 1.29 µM |  | 2.77 µM |  |  | 0.94 µM |  |  | COc1cccc2c1C(=O)c1c(O)c3c(c(O)c1C2=O)C[C@@](O)(C(=O)CO)C[C@@H]3O[C@H]1C[C@H](N)[C@H](O)[C@H](C)O1 [DOXORUBICIN HYDROCHLORIDE]
20 | 14.8% | 33.6 µM | 1.26 | 37.2 µM | 80.6% | 83% | > 50 µM | 0.4 | 0.93 | Clc1cccc(-c2cc(-c3ccccc3)c3oc4ccccc4c3n2)c1
21 | 31.5 to 36.8% |  |  | 4.12 µM |  | 52.3 to 66% | 9.27 µM |  |  | COc1cc([C@@H]2c3cc4c(cc3[C@@H](O[C@@H]3O[C@@H]5CO[C@@H](C)O[C@H]5[C@H](O)[C@H]3O)[C@H]3COC(=O)[C@H]23)OCO4)cc(OC)c1O [ETOPOSIDE]
